# Measurements reported in publication PMC10647861, “New Thiazolyl-Pyrazoline Derivatives as Potential Dual EGFR/HER2 Inhibitors: Design, Synthesis, Anticancer Activity Evaluation and In Silico Study” (Molecules, 2023).
# Read-outs that look alike come from different tables or passages of the source.
# Legend:
# [1] = test system: MCF-7; test: MTT anti-proliferative assay toward MCF-7; settings: Homo sapiens, MCF7, 48 h, read-out: IC50 toward MCF-7
# Procedure: Anti-proliferative activities were done using the MTT colorimetric assay [58]. Cell viability was assessed after 48 h, and the viability was calculated relative to the control [59]
# Experimental of biological evaluations
# Anti-proliferative activities were done using MTT colorimetric assay.
# Both cell lines were provided with 10% fetal bovine serum (FBS, Sigma-Aldrich, MO, USA) and 1% penicillin-streptomycin (Lonza, Belgium). Cells were incubated following standard tissue culture work. Cell viability was assessed after 48 h using MTT solution (Promega, USA). Absorbance was subsequently measured (at 570 nm) using ELISA microplate reader (BIO-RAD, model iMark, Japan). The viability was calculated relative to control.
# EGFR and HER2 enzyme inhibition
# (§1) Measurement of potential EGFR/ HER2 inhibitory activities was performed using EGFR
# (§2) following equation was used to determine the proportion of autophosphorylation inhibition by
# concentrations for each compound.
# Cell cycle analysis and apoptotic assay
# MCF-7 cells were seeded into 6-well culture plates (3-5× 10^5 cells/well) and incubated
# 48 h. Subsequently, cells and medium supernatants were gathered and washed with ice-cold PBS.
# The cells were then suspended in 100 µL of the annexin binding buffer solution, which was described as "25 mM CaCl 2, 1.4 M NaCl, and 0.1 M Hepes/NaOH, pH 7.4”. The cell incubation and addition of Annexin V-FITC solution, and propidium iodide (PI) were done according to the reported procedure. Next, the Cytoflex FACS equipment was used to obtain the stained cells. The program CytExpert was used to analyze the data.
# [2] = test system: MCF-7 cells; test: Annexin V/PI apoptosis analysis in MCF-7; assay type: cell-based; settings: MCF-7, compound at its IC50, 48 h
# [3] = molecular target: HER2 Kinase (Homo sapiens, UniProt P04626); test: HER2 kinase inhibitory assay (BPS Bioscience kit)
# Sequence of HER2 Kinase (P04626 23-1255): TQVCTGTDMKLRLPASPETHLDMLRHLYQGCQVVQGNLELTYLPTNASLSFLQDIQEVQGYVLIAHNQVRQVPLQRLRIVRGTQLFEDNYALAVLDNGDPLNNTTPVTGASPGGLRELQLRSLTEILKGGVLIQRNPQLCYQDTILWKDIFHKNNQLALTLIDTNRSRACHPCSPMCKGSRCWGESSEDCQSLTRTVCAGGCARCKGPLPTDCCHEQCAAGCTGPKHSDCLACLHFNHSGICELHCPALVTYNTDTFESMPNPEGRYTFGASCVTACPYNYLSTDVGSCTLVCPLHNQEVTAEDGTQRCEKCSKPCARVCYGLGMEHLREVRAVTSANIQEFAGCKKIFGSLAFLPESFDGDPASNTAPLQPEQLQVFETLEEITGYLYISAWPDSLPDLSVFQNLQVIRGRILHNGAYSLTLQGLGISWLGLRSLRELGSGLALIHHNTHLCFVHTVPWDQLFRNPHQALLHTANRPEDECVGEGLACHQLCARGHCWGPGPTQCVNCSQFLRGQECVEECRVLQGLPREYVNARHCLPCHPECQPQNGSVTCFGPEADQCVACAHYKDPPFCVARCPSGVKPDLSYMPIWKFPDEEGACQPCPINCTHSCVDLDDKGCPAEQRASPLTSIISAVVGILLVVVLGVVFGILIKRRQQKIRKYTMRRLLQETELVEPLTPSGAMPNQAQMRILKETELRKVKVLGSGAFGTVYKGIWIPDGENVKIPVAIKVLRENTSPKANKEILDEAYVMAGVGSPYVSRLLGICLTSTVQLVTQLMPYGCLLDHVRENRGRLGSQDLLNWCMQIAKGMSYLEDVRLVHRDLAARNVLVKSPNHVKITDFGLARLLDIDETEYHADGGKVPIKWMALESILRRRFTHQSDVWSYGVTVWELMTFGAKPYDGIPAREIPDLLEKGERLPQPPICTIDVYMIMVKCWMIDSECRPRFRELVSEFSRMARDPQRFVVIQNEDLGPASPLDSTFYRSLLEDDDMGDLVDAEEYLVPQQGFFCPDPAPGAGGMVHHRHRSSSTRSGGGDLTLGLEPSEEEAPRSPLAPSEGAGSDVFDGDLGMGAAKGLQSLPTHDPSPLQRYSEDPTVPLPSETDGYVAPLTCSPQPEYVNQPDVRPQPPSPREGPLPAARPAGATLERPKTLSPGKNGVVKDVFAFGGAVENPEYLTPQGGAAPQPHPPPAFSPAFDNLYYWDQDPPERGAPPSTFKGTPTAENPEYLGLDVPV
# Procedure: Experimental of biological evaluations
# EGFR and HER2 enzyme inhibition
# as §1, §2
# concentrations for each compound.
# [4] = test system: MCF-10A; test: MTT cytotoxicity assay toward MCF-10A; assay type: cell-based; settings: Homo sapiens, 48 h
# [5] = test system: MCF-7; test: Cell cycle analysis in MCF-7; assay type: cell-based; settings: for DNA Content %G0-G1 / DNA Content %G2/M / DNA Content %S: MCF-7, compound at its IC50, 48 h
# [6] = molecular target: EGFR Kinase (Homo sapiens, UniProt P00533); test: EGFR kinase inhibitory assay (BPS Bioscience kit)
# Sequence of EGFR Kinase (P00533 25-1210): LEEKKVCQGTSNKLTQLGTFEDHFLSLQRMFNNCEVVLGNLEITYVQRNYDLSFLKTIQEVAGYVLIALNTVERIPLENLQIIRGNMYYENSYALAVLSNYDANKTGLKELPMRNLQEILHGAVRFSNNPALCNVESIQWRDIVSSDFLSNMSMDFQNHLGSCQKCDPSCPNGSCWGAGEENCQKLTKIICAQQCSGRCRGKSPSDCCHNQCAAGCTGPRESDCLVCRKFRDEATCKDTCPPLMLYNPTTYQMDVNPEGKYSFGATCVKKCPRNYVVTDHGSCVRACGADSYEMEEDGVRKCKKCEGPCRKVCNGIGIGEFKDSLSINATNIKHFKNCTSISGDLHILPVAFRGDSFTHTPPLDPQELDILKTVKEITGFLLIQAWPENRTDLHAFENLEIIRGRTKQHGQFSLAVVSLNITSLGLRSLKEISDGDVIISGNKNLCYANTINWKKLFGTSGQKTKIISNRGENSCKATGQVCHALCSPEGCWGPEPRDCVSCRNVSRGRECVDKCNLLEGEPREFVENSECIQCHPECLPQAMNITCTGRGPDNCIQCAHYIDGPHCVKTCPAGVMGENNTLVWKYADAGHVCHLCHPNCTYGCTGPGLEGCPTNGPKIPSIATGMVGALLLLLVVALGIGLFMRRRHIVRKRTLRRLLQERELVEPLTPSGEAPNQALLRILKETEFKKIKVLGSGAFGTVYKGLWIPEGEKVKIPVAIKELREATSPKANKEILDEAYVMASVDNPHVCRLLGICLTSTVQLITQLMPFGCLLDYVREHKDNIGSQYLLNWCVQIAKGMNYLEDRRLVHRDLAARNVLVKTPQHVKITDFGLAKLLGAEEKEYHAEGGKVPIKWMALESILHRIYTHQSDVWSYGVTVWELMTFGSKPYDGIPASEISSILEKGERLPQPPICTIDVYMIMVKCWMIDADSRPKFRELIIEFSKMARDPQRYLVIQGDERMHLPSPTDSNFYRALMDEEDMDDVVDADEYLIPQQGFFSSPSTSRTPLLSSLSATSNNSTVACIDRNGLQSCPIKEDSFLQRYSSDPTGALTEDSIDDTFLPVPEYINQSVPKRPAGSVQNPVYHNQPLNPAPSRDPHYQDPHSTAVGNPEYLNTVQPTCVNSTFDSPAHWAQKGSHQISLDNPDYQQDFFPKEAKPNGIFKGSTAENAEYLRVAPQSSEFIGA
# Procedure: Experimental of biological evaluations
# EGFR and HER2 enzyme inhibition
# as §1, §2
# concentrations for each compound.
# [7] = test system: T-47D cell line; set-up: method as in PMID 37049966; settings: cited from earlier work
# [8] = test system: EGFR; settings: cited from earlier work
# [9] = test system: MCF-7; settings: cited from earlier work
# [10] = test system: HER2; settings: cited from earlier work
# [11] = test system: A549; set-up: method as in PMID 21802290; settings: cited from earlier work
compound,measurement,setting,value
"COc1ccc(C=C2SC(N3N=C(c4ccc(OC)c(OC)c4)CC3c3ccc(Cl)cc3)=NC2=O)cc1 (centres unmarked) [Compound 7d, 2-(5-(4-Chlorophenyl)-3-(3,4-dimethoxyphenyl)-4,5-dihydro-1H-pyrazol-1-yl)-5-(4-methoxybenzylidene)thiazol-4(5H)-one]",IC50,[1],20.17 ± 0.19 µM
same,melting point,,250 to 252 °C
"COc1ccc(C2CC(c3ccc(OC)c(OC)c3)=NN2C2=NC(=O)CS2)cc1 (centres unmarked) [Compound 6a, 2-(3-(3,4-Dimethoxyphenyl)-5-(4-methoxyphenyl)-4,5-dihydro-1H-pyrazol-1-yl)thiazol-4(5H)-one]",Apoptosis Early,[2],28.17%
same,Apoptosis Late,[2],17.98%
same,Necrosis,[2],4.88%
same,IC50,[3],47 ± 8 nM
same,IC50,[1],4.08 ± 0.08 µM
same,IC50,[4],≥ 50 µM
same,DNA Content %G0-G1,[5],69.82%
same,DNA Content %G2/M,[5],8.12%
same,DNA Content %S,[5],22.06%
same,IC50,[6],24 ± 5 nM
"COc1ccc(C2=NN(C3=NC(=O)C(=C4C(=O)Nc5ccccc54)S3)C(c3ccc(Cl)cc3)C2)cc1OC (centres unmarked) [Compound 8b, 2-(5-(4-Chlorophenyl)-3-(3,4-dimethoxyphenyl)-4,5-dihydro-1H-pyrazol-1-yl)-5-(2-oxoindolin-3-ylidene)thiazol-4(5H)-one]",IC50,[1],19.5 ± 0.27 µM
same,melting point,,> 300 °C
"COc1ccc(C2=NN(C3=NC(=O)CS3)C(c3ccc(Cl)cc3)C2)cc1OC (centres unmarked) [Compound 6b, 2-(5-(4-Chlorophenyl)-3-(3,4-dimethoxyphenyl)-4,5-dihydro-1H-pyrazol-1-yl)thiazol-4(5H)-one]",IC50,[3],81 ± 6 nM
same,IC50,[1],5.64 ± 0.11 µM
same,IC50,[4],32.8 ± 1.27 µM
same,melting point,,208 to 210 °C
same,IC50,[6],26 ± 2 nM
"COc1ccc(C2CC(c3ccc(OC)c(OC)c3)=NN2c2nc(C)c(N=Nc3ccc(S(N)(=O)=O)cc3)s2)cc1 (centres unmarked) [Compound 4b, 4-((2-(3-(3,4-Dimethoxyphenyl)-5-(4-methoxyphenyl)-4,5-dihydro-1H-pyrazol-1-yl)-4-methylthiazol-5-yl)diazenyl)benzenesulfonamide]",IC50,[1],17.12 ± 0.15 µM
same,melting point,,200 to 202 °C
Cc1ccc(C2=NN(C3=NC(=O)/C(=C/c4ccc(O)cc4)S3)C(c3ccc(F)cc3)C2)cc1 (centres unmarked) [VI],IC50,[7],1150 nM
same,IC50,[8],83 nM
COc1ccc(C2CC(c3ccc(OC)c(OC)c3)=NN2c2nc(-c3ccccc3)cs2)cc1 (centres unmarked) [IV],IC50,[9],7210 nM
same,IC50,[10],13 nM
same,IC50,[8],9 nM
COc1ccc(C2CC(c3ccc(Cl)cc3Cl)=NN2c2nc(C)c(C(=O)Nc3ccccc3)s2)cc1OC (centres unmarked) [II],IC50,[11],2920 nM
same,IC50,[8],32 nM
"COc1ccc(C2=NN(c3nc(-c4cc5ccccc5oc4=O)cs3)C(c3ccc(Cl)cc3)C2)cc1OC (centres unmarked) [Compound 10b, 3-(2-(5-(4-Chlorophenyl)-3-(3,4-dimethoxyphenyl)-4,5-dihydro-1H-pyrazol-1-yl)thiazol-4-yl)-2H-chromen-2-one]",IC50,[3],65 ± 7 nM
same,IC50,[1],3.54 ± 0.07 µM
same,IC50,[4],27.1 ± 1.98 µM
same,melting point,,238 to 240 °C
same,IC50,[6],29 ± 4 nM
"COc1ccc(C2=NN(C3=NC(=O)C(=NNc4ccc(S(N)(=O)=O)cc4)S3)C(c3ccc(Cl)cc3)C2)cc1OC (centres unmarked) [Compound 5d, 4-(2-(2-(5-(4-Chlorophenyl)-3-(3,4-dimethoxyphenyl)-4,5-dihydro-1H-pyrazol-1-yl)-4-oxothiazol-5(4H)-ylidene)hydrazineyl)benzenesulfonamide]",IC50,[1],25.7 ± 0.12 µM
same,melting point,,292 to 294 °C
"COc1ccc(C2CC(c3ccc(OC)c(OC)c3)=NN2C2=NC(=O)C(=NNc3ccc(S(N)(=O)=O)cc3)S2)cc1 (centres unmarked) [Compound 5b, 4-(2-(2-(3-(3,4-Dimethoxyphenyl)-5-(4-methoxyphenyl)-4,5-dihydro-1H-pyrazol-1-yl)-4-oxothiazol-5(4H)-ylidene)hydrazineyl)benzenesulfonamide]",IC50,[1],27.31 ± 0.26 µM
same,melting point,,249 to 251 °C
Cc1ccc(C2=NN(c3nc(-c4ccc(Cl)cc4)cs3)C(c3ccc(F)cc3)C2)cc1C (centres unmarked) [I],IC50,[9],70 nM
same,IC50,[8],60 nM
"COc1ccc(C2=NN(c3nc(C)c(N=Nc4ccc(Cl)cc4)s3)C(c3ccc(Cl)cc3)C2)cc1OC (centres unmarked) [Compound 4c, 2-(5-(4-Chlorophenyl)-3-(3,4-dimethoxyphenyl)-4,5-dihydro-1H-pyrazol-1-yl)-5-((4-chlorophenyl)diazenyl)-4-methylthiazole]",IC50,[1],18.7 ± 0.22 µM
same,melting point,,210 to 212 °C
"COc1ccc(C=C2SC(N3N=C(c4ccc(OC)c(OC)c4)CC3c3ccc(OC)cc3)=NC2=O)cc1 (centres unmarked) [Compound 7b, 2-(3-(3,4-Dimethoxyphenyl)-5-(4-methoxyphenyl)-4,5-dihydro-1H-pyrazol-1-yl)-5-(4-methoxybenzylidene)thiazol-4(5H)-one]",IC50,[1],20 ± 0.22 µM
same,melting point,,245 to 247 °C
"COc1ccc(C2CC(c3ccc(OC)c(OC)c3)=NN2C2=NC(=O)C(=Cc3ccccc3)S2)cc1 (centres unmarked) [Compound 7a, 5-Benzylidene-2-(3-(3,4-dimethoxyphenyl)-5-(4-methoxyphenyl)-4,5-dihydro-1H-pyrazol-1-yl)thiazol-4(5H)-one]",IC50,[1],17.79 ± 0.14 µM
same,melting point,,294 to 296 °C
"COc1ccc(C2CC(c3ccc(OC)c(OC)c3)=NN2c2nc(C)c(N=Nc3ccc(Cl)cc3)s2)cc1 (centres unmarked) [Compound 4a, 5-((4-Chlorophenyl)diazenyl)-2-(3-(3,4-dimethoxyphenyl)-5-(4-methoxyphenyl)-4,5-dihydro-1H-pyrazol-1-yl)-4-methylthiazole]",IC50,[1],18.6 ± 0.19 µM
same,melting point,,192 to 194 °C
"COc1ccc(C2CC(c3ccc(OC)c(OC)c3)=NN2C2=NC(=O)C(=C3C(=O)Nc4ccccc43)S2)cc1 (centres unmarked) [Compound 8a, 2-(3-(3,4-Dimethoxyphenyl)-5-(4-methoxyphenyl)-4,5-dihydro-1H-pyrazol-1-yl)-5-(2-oxoindolin-3-ylidene)thiazol-4(5H)-one]",IC50,[1],21.33 ± 0.21 µM
same,melting point,,> 300 °C
"COc1ccc(C2CC(c3ccc(OC)c(OC)c3)=NN2C2=NC(=O)C(=NNc3ccc(Cl)cc3)S2)cc1 (centres unmarked) [Compound 5a, 5-(2-(4-Chlorophenyl)hydrazineylidene)-2-(3-(3,4-dimethoxyphenyl)-5-(4-methoxyphenyl)-4,5-dihydro-1H-pyrazol-1-yl)thiazol-4(5H)-one]",IC50,[1],30.24 ± 0.24 µM
"COc1ccc(C2=NN(c3nc(C)c(N=Nc4ccc(S(N)(=O)=O)cc4)s3)C(c3ccc(Cl)cc3)C2)cc1OC (centres unmarked) [Compound 4d, 4-((2-(5-(4-Chlorophenyl)-3-(3,4-dimethoxyphenyl)-4,5-dihydro-1H-pyrazol-1-yl)-4-methylthiazol-5-yl)diazenyl)benzenesulfonamide]",IC50,[1],17.1 ± 0.21 µM
same,melting point,,208 to 210 °C
COc1ccc2nc(Cl)c(C3CC(c4ccc(C)cc4)=NN3c3nc(-c4ccc(F)cc4)cs3)cc2c1 (centres unmarked) [V],IC50,[9],227 nM
same,IC50,[8],31 nM
"COc1ccc(C2CC(c3ccc(OC)c(OC)c3)=NN2c2nc(-c3cc4ccccc4oc3=O)cs2)cc1 (centres unmarked) [Compound 10a, 3-(2-(3-(3,4-Dimethoxyphenyl)-5-(4-methoxyphenyl)-4,5-dihydro-1H-pyrazol-1-yl)thiazol-4-yl)-2H-chromen-2-one]",Apoptosis Early,[2],19.22%
same,Apoptosis Late,[2],15.91%
same,Necrosis,[2],7.53%
same,IC50,[3],22 ± 5 nM
same,IC50,[1],3.37 ± 0.13 µM
same,IC50,[4],≥ 50 µM
same,DNA Content %G0-G1,[5],66.41%
same,DNA Content %G2/M,[5],4.04%
same,DNA Content %S,[5],29.55%
same,cell accumulation at S phase relative to control,"[5]; MCF-7, compound at its IC50, control 26.33%",1.12 folds
same,cell accumulation at G0-G1 relative to control,"[5]; MCF-7, compound at its IC50, control 62.59%",1.06 folds
same,IC50,[6],5 ± 2 nM
Brc1ccc(C2=NN(c3nc(-c4ccc(Br)cc4)cs3)C(c3ccc4c(c3)OCO4)C2)cc1 (centres unmarked) [III],IC50,[9],90 nM
same,IC50,[10],180 nM
"COc1ccc(C2=NN(C3=NC(=O)C(=Cc4ccccc4)S3)C(c3ccc(Cl)cc3)C2)cc1OC (centres unmarked) [Compound 7c, 5-Benzylidene-2-(5-(4-chlorophenyl)-3-(3,4-dimethoxyphenyl)-4,5-dihydro-1H-pyrazol-1-yl)thiazol-4(5H)-one]",IC50,[1],21.2 ± 0.24 µM
same,melting point,,283 to 285 °C
"COc1ccc(C2=NN(C3=NC(=O)C(=NNc4ccc(Cl)cc4)S3)C(c3ccc(Cl)cc3)C2)cc1OC (centres unmarked) [Compound 5c, 2-(5-(4-Chlorophenyl)-3-(3,4-dimethoxyphenyl)-4,5-dihydro-1H-pyrazol-1-yl)-5-(2-(4-chlorophenyl)hydrazineylidene)thiazol-4(5H)-one]",IC50,[1],28.03 ± 0.25 µM
same,melting point,,278 to 280 °C
"CS(=O)(=O)CCNCc1ccc(-c2ccc3ncnc(Nc4ccc(OCc5cccc(F)c5)c(Cl)c4)c3c2)o1 [Lapatinib, reference compound]",IC50,[1],5.88 ± 0.04 µM
same,IC50,[4],≥ 50 µM
